From PMC3343029, “Crystal Structure of the Cysteine Desulfurase DndA from Streptomyces lividans Which Is Involved in DNA Phosphorothioation” (PLoS ONE, 2012) come the findings set out here.

The target in the test is T1, DndA (Streptomyces lividans, UniProt A7TUX7, C344S).
T1 construct: full length residues 1-380, N-terminal His-tag (pET28a), expressed in E. coli BL21(DE3); homodimer; residues 2-359 in the model
As to the kind of experiment: X-ray crystallography, […] Å. It counts as binding. The conditions noted are these: covalent; Schiff base with Lys200; crystals at pH 5.5 without L-cysteine.

T1 sequence (A7TUX7 entry or part of it C344S): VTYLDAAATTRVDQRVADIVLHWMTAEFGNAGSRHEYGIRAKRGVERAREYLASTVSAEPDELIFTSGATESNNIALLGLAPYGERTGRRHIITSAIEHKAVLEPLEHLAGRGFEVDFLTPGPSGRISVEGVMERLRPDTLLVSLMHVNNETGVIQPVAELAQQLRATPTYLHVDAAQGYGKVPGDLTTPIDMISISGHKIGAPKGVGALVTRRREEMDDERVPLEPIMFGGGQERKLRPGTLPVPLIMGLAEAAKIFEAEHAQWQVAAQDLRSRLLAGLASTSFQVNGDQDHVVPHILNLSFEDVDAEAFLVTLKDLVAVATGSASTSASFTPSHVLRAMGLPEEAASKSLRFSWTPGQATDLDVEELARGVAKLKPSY

As for `Cc1ncc(COP(=O)(O)O)c(C=O)c1O` [PLP], the “X-ray crystallography, 2.4 Å” value was “there is a PLP cofactor which forms a Schiff base covalent bond with the amino”.
